Reference: patent US11724995B2, “Decalin derivatives, a process for the preparation and pharmaceutical composition thereof” (Council of Scientific & Industrial Research, priority 2018, dated 2023)

Test system: Sickle cell red blood cells (SS RBCs)
Assay: Flow adhesion assay: sickle cell adhesion inhibition, RBCs perfused over TNF-α activated HUVEC monolayer
Type: cell-based
Conditions: Homo sapiens; Table 1; SS RBCs treated with test compound at 100 μM, hypoxic condition 2 h; adhesion to TNF-α activated HUVEC monolayer under pulsatile flow; read-out: Inhibition (percentage of inhibition of cell adhesion)
Protocol: In still yet another embodiment, the present disclosure provides Sickle cell adhesion inhibition using Sickle cell red blood cells (SS RBCs). Flow adhesion assay are performed with commercial microfluidic-well plate and microfluidic flow adhesion system. Microfluidic channels are coated by perfusion (1 dyne/cm^2, 5 min) and incubated (37° C., 1 h) with 100 ng/ml Fibronectin. Channels are then perfused with complete media to remove unbound Fibronectin. Then a uniform monolayer of HUVEC cells is formed by profusing micro channels with the cell suspension at a pressure of 3 dyne/cm^2 for 5 sec and kept for 12 hours incubation to form monolayer. The HUVEC monolayer is activated 25 ng/ml of TNF-α and incubated (37° C., 4 h). Meanwhile Sickle cell red blood cell (SS RBCs) are treated with test compound at 100 μM concentration and incubated in hypoxic condition ([…], 5% CO2, 2 h). Flow condition for adhesion assay was pulsatile (1.67 Hz) flow (0.3 dyne/cm^2). For adhesion inhibition assay SS RBCs are diluted (2:50) in PBS. SS RBCs are perfused over HUVEC monolayer and incubated for 1 h. Unbound cells in micro channels are removed by perfusing complete media. Adherent cells are enumerated. Table 1 depicts percentage of inhibition when the compounds are tested at 100 μM concentration.
Flow adhesion assay were performed with commercial microfluidic-well plate and microfluidic flow adhesion system, Bio flux 200. Microfluidic channels were coated by perfusion (1 dyne/cm^2, 5 min) and incubated (37° C., 1 h) with 100 ng/ml Fibronectin. Channels were then perfused with complete media to remove unbound Fibronectin. Then a uniform monolayer of HUVEC cells was formed by profusing micro channels with the cell suspension at a pressure of 3 dyne/cm^2 for 5 sec and kept for 12 hours incubation to form monolayer. The HUVEC monolayer was activated 25 ng/ml of TNF-α and incubated (37° C., 4 h). Meanwhile RBCs were treated with test compound at 100 μM concentration and incubated in hypoxic condition ([…], 5% CO2, 2 h). Flow condition for adhesion assay was pulsatile (1.67 Hz) flow (0.3 dyne/cm^2). For adhesion inhibition assay RBCs were diluted (2:50) in PBS. RBCs were perfused over HUVEC monolayer and incubated for 1 h. Unbound cells in micro channels were removed by perfusing complete media. Adherent cells were enumerated.

Compound	inhibition at 100 µM [%]
C[C@@H]1C(=O)C=CC2=CC(=O)CC[C@]21C [Compound 30, (1S,8aS)-1,8a-dimethyl-1,7,8,8a-tetrahydronaphthalene-2,6-dione]	72
C[C@@H]1CC(=O)C=C2C=CC(=O)C[C@]21C [Compound 29, (8R,8aS)-8,8a-dimethyl-1,7,8,8a-tetrahydronaphthalene-2,6-dione]	70
C[C@@H]1CC=CC2=CC(=O)CC[C@]21C [Compound 24, (4aS,5R)-4a,5-dimethyl-4,4a,5,6-tetrahydronaphthalen-2(3H)-one]	67
C[C@@H]1CC(=O)C=C2C[C@@H](O)[C@@H](O)C[C@]21C [Compound 28, (4R,4aS)-6,7-dihydroxy-4,4a-dimethyl-4,4a,5,6,7,8-hexahydronaphthalen-2(3H)-one]	56
C[C@@H]1CC(=O)C=C2C=CCC[C@]21C [Compound 21, (4R,4aS)-4,4a-dimethyl-4,4a,5,6-tetrahydronaphthalen-2(3H)-one]	78
